Data: patent US10576050B2, “Methods and compositions for treatment of cancer” (ONCONOVA THERAPEUTICS, INC., priority 2012, dated 2020)
Where “and” joins values, the source holds several entries; their conditions need not be identical. Equal values may be shown once.

Experiments:
[1] = Oral administration of Rigosertib 25 mg dose capsule in MDS patients, plasma level
[2] = Phase 1 dose escalation study of oral ON 01910.Na in MDS patients refractory to ESA, lenalidomide and DNA methyltransferase inhibitors
Experimental: FIG. 1: Safety and efficacy of Rigosertib (ON 01910.Na) was determined in a dose escalation study in MDS patients refractory to ESA, lenalidomide and DNA Methyltransferase inhibitors. ESA was allowed as concomitant medication. The drug dose was escalated based on a defined escalation dose scheme (70 mg, 140 mg, 280 mg, 560 mg, and 700 mg). Three patients were treated with single escalating weekly doses of oral Rigosertib to determine the oral absorption of Rigosertib.
FIG. 3: The oral absorption and tolerability of Rigosertib administered as single weekly escalating doses in a fasting state were determined in 3 patients. All 3 patients received a 70 mg single oral dose and blood samples for pharmacokinetic analyses were obtained. In the absence of drug-related grade ≥2 toxicity, single dosing was escalated weekly in each patient to 140 mg (week 2), 280 mg (week 3), 560 mg (week 4) and 700 mg (week 5).
FIG. 4: This is a waterfall plot of 8 patients broken down by French American British classification (FAB) as either Refractory Anemia with Excess Blasts-1 (RAEB-1) or RAEB-2. […] The dosage level of each patient is also provided, as well as the patient history of treatment with Azacytidine. The bone marrow blast reduction is measures as a function of FAB classification, dosage and prior treatment with hypomethylating agents.
FIG. 10: Transfusion independence. […] Transfusion independence (TI) defined by absence of RBC transfusion for at least 8 consecutive weeks. Erythroid Response (ER) defined by reduction of at least 4 RBC transfusions/8 weeks compared to pretreatment transfusion number in the previous 8 weeks (RBC Tx for Hb<9.0 g/dL).
Each bar represents one patient. 12 individual MDS patients all categorized as low to intermediate-1 risk (International Prognostic Scoring System—IPSS) and transfusion dependent are shown. […] The decrease in transfusion requirement is plotted for each patient. The absolute differences in red blood cell (RBC) units versus pre-treatment needs are provided.
A total of 16 patients are plotted against their percentage reduction in need for red blood cell transfusions after treatment versus their pre-treatment needs.
Safety and efficacy of a novel oral formulation of ON 01910.Na were determined in a dose escalation study in MDS patients refractory to ESA, lenalidomide and DNA Methyltransferase inhibitors.
ESA was allowed as concomitant medication. The drug dose was escalated based on a defined escalation dose scheme (70, 140, 280, 560, and 700 mg). The drug was administered orally twice a day for 14 days of a 21 day cycle.
Rigosertib (ON 01910.Na) was used in five clinical trials for myelodysplastic syndrome (MDS) in both intravenous and oral formulations.

[3] = Phase I/II study of Rigosertib continuous IV infusion in relapsed or refractory AML or transformed MPN; details: for concentration at 6 h: human, in vivo, 2400 mg/day, average plasma levels, 2400 mg/day CIV
Experimental: (§1) Methods: The patients were >18 years of age with relapsed or refractory AML or transformed myeloproliferative neoplasms (MPN). Patients were given Rigosertib by continuous IV infusions over 24 hours with a fixed dose of 2400 mg/day either for 72 hrs or 120 hrs every other week using a standard dose escalation scheme. A blood sample was withdrawn at 6 hrs after the start of infusion during cycle 1 and cycle 2 to assess the plasma concentration of Rigosertib. The study was subsequently amended and, after 2 cycles of IV Rigosertib (each cycle being 2 weeks) patients received Rigosertib orally, 560 mg twice a day continuously for 20 weeks. The objectives of Phase I study were to define maximum tolerated dose (MTD), dose limiting toxicities (DLT), and identify all toxicities and anti-leukemia activity. Phase II primary objective was to determine the clinical efficacy; secondary objectives were to assess time to response or progression, duration of response and overall survival at 6 months.
as §1, with “Patients with” for “Methods: The patients were >18 years of age with”, “neoplasms (MPN)” for “neoplasms (MPN). Patients”, “hours (hrs)” for “hours”, “of phase 1” for “of Phase I”, “(DLT),” for “(DLT), and”, “Phase 2” for “Phase II”

[4] = Dose escalation of oral Rigosertib twice daily in patients with refractory solid tumors; type: in vivo, human; details: BID continuously, 25 patients
Experimental: Twenty-five patients with histologically confirmed solid tumors refractory to standard therapy were given escalating doses of oral Rigosertib twice daily. Doses were increased according to a schedule until the appearance of grade 2 or grade 3/4 toxicities. The maximum tolerated dose (MTD) of oral Rigosertib administered twice daily continuously is 560 mg BID. Dysuria was identified as a potential dose-limiting adverse event and a reported toxicity. […] The antitumor activity in this study supported past observations of Rigosertib efficacy in other solid tumor clinical trials. Pharmacokinetic (PK) data reveal plasma levels with oral Rigosertib were above the predicted pharmacodynamically active levels. Final safety and efficacy results, plasma and urinary PK relationships, and mutational analyses from archival tissue are presented

[5] = system: human GM-CSF-dependent erythroblastic TF-1 cell line; experiment: In vitro effect of ON 01910.Na on cell cycle readouts in TF-1 cells by SCNP; type: cell-based; details: 24 hours
Experimental: FIG. 2: In vitro effect of ON 01910.Na at clinically relevant concentrations on intracellular pathways in human GM-CSF-dependent erythroblastic TF-1 cell line using SCNP was evaluated in order to monitor transitional changes in the cell cycle, with a focus on the G2-M phase and to perform dose-dependent titrations of drug using these cell cycle readouts. The reagents chosen to measure cell cycle readouts were fluorochrome-conjugated antibodies that recognize cyclin B1, p-histone H3(S28) and p-Cdk1(Y15) and 4′6′-diamino-2-phenylindole (DAPI). […] TF-1 cell DNA content measured by DAPI verified this to be the case as increases in G2/M and sub-G1 (a measure of apoptotic cell death) were simultaneously observed. […] These effects were also observed at 48 hours, although with more cell death. This assay was used to measure the pharmacodynamics activity of the drug in MDS patient samples pre- and post-treatment with ON 01910.Na.

[6] = 8 RAEB-1/RAEB-2 patients, FIG. 4
[7] = individual patients achieving transfusion independence

COc1cc(OC)c(/C=C/S(=O)(=O)Cc2ccc(OC)c(NCC(=O)[O-])c2)c(OC)c1.[Na+] [Rigosertib, sodium (E)-2-{2-methoxy-5-[(2′,4′,6′-trimethoxystyrylsulfonyl)methyl]phenylamino}acetate]
half-life ([1]; human, plasma, po, 25 mg): ~10 h | plasma peak level ([1]; oral, 25 mg dose capsule, MDS patients): 2 to 4 µM | patients with dose limiting toxicity (DLT) during first 3-week cycle ([2]; 700 mg dose level, dysuria and shortness of breath): One | patients responding (bone marrow blast reduction) [2, 6]: 6 of 8 | patients with bone marrow complete response (BM CR) [2, 6]: 2 | patients showing decrease in transfusion dependence based on RBC requirement (absolute differences) ([2]; 12 low to intermediate-1 risk transfusion dependent MDS patients, oral, 8 weeks, FIG. 13): 3 of 12 | patients showing decrease in transfusion dependence based on decrease in percentage of RBC requirement ([2]; 16 patients, FIG. 14): 5 of 16 | tolerability of oral formulation ([2]; 70-700 mg orally twice a day, 14 days of a 21 day cycle): well tolerated | # Units/56 ds Trt ([2]; RBC units per 56 days of treatment, individual patients): 8.0 and 10.5 (2×) and 3.2 and 3.1 and 0.3 (2×) and 4.4 and 11.6 (2×) and 7.1 and 2.0 and 4.3 and 2.9 and 4.9 and 6.4 | % Reduction ([2]; RBC units vs pre-treatment, individual patients): 100% and 74% and −68% and −49% and −87% and −45% and −88% and 44% and −41% and −50% and 5% and −29% and −52% and −18% and 7% and −3% | # Units during Trt ([2]; RBC units, individual patients, one table row per patient): 2 (4×) and 17 and 10 and 16 (3×) and 13 and 4 (4×) and 21 and 8 | safe and efficacious dose ([2]; bid, oral, 14 days of a 21 day cycle): 560 mg | TX response ([2]; individual Low-Int-1 risk transfusion dependent MDS patients, 560 or 700 mg bid, one table row per patient): No | Duration Tx indep [2, 7]: 16 and 47+ (2×) and 8 | Onset Tx indep week [2, 7]: 10 and 7 and 6 and 3 | Cmax as a function of dose ([2]; single weekly escalating oral doses 70-700 mg, fasting, 3 patients): increased linearly | Red RBC Units ([2]; units/56 days on treatment vs units in 56 days pre-treatment, individual patients): 4.0 and 4.5 and −6.8 and −2.9 and −3.7 and −3.6 and −5.7 and 3.6 and −4.9 and −2.0 and 0.5 and −1.7 and −3.1 and −1.1 and 0.4 and −0.4 | patients with transient hematologic response with improvement of platelets ([3]; 4 patients): 16% | absolute reduction of peripheral blasts (best response, stabilization of disease) ([3]; after 2 cycles): > 50% | patients with stabilization of disease with >50% absolute reduction of peripheral blasts ([3]; after 2 cycles, 2/25 patients): 8% | patients with peripheral blasts maintained at +/−10% of pretreatment level ([3]; after 2 cycles, 4 patients): 16% | concentration at 6 h ([3]; week 1, 6 hrs after start of infusion): 9.2 ± 5.05 µM | concentration at 6 h ([3]; week 3, 6 hrs after start of infusion): 9.81 ± 6.7 µM | toxicity profile ([3]; main adverse event transient AMS (altered mental status)): acceptable toxicity profile | DLT dose ([3]; over 24 hrs): 2400 mg | MTD ([3]; over 24 hrs for 3 days, CIV): 2400 mg | maximum tolerated dose (MTD) [4]: 560 mg | effect on G2/M cell cycle transition ([5]; DAPI DNA content): mitotic arrest with subsequent apoptosis | drug concentration of maximal effects on cell cycle signaling molecules ([5]; cyclin B1, p-histone H3(S28), p-Cdk1(Y15)): 0.37 µM
